Toxic doses and inconclusive results are not listed. No stated cut-off is given here; in the data, active means T/C of 150% or more; inactive means T/C below 125%.
Tested on: L1210 leukemia ip in BDF1 mice, survival T/C
Experiment: NCI In Vivo Anticancer Drug Screen. Data for tumor model L1210 Leukemia (intraperitoneal) in B6D2F1 (BDF1) mice
Details: endpoint: mean survival time, higher = longer survival
How it was run: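 Value reflects the ratio of survival in compound-treated mice to survival in vehicle-treated controls, with both groups carrying the same transplanted tumor.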

Measured: T/C

CNC[C@@H](O)c1ccc(O)c(O)c1
inactive: dose: 0.1 mg/kg/injection, schedule: Q01DX009 (ip), vehicle: saline 94 % of control | dose: 0.2 mg/kg/injection, schedule: Q01DX001 (ip), vehicle: saline 112 % of control | dose: 0.2 mg/kg/injection, schedule: Q01DX009 (ip), vehicle: saline 109 % of control | dose: 0.31 mg/kg/injection, schedule: Q01DX009 (ip), vehicle: saline 111 % of control | dose: 0.4 mg/kg/injection, schedule: Q01DX001 (ip), vehicle: saline 106 % of control | dose: 0.4 mg/kg/injection, schedule: Q01DX009 (ip), vehicle: saline 102 % of control | dose: 0.4 mg/kg/injection, schedule: Q04DX003 (ip), vehicle: saline 108 % of control | dose: 0.59 mg/kg/injection, schedule: Q01DX009 (ip), vehicle: saline 95 % of control | dose: 0.62 mg/kg/injection, schedule: Q01DX009 (ip), vehicle: saline 98 % of control | dose: 0.8 mg/kg/injection, schedule: Q01DX001 (ip), vehicle: saline 104 % of control | dose: 0.8 mg/kg/injection, schedule: Q04DX003 (ip), vehicle: saline 113 % of control | dose: 0.9 mg/kg/injection, schedule: Q01DX009 (ip), vehicle: saline 97 % of control | dose: 1.1 mg/kg/injection, schedule: Q01DX001 (ip), vehicle: saline 96 % of control | dose: 1.25 mg/kg/injection, schedule: Q01DX009 (ip), vehicle: saline 101 % of control | dose: 1.3 mg/kg/injection, schedule: Q01DX009 (ip), vehicle: saline 97 % of control | dose: 1.6 mg/kg/injection, schedule: Q04DX003 (ip), vehicle: saline 98 % of control | dose: 2.3 mg/kg/injection, schedule: Q04DX003 (ip), vehicle: saline 103 % of control | dose: 2.5 mg/kg/injection, schedule: Q01DX009 (ip), vehicle: saline 102 % of control | dose: 3.6 mg/kg/injection, schedule: Q04DX003 (ip), vehicle: saline 109 % of control

Cc1ccccc1Sc1ccccc1[N+](=O)[O-]
inactive: dose: 100.0 mg/kg/injection, schedule: Q04DX003 (ip), vehicle: Klucel (hydroxypropylcellulose) (HPC) 95 % of control | dose: 200.0 mg/kg/injection, schedule: Q04DX003 (ip), vehicle: Klucel (hydroxypropylcellulose) (HPC) 106 % of control | dose: 400.0 mg/kg/injection, schedule: Q04DX003 (ip), vehicle: Klucel (hydroxypropylcellulose) (HPC) 103 % of control

O=C(NCCCl)NC1CCC(C(=O)O)CC1 (stereo not drawn)
inactive: dose: 100.0 mg/kg/injection, schedule: Q01DX001 (ip), vehicle: saline with Tween-80 97 % of control | dose: 200.0 mg/kg/injection, schedule: Q01DX001 (ip), vehicle: saline with Tween-80 100 % of control | dose: 400.0 mg/kg/injection, schedule: Q01DX001 (ip), vehicle: saline with Tween-80 94 % of control

N#CCCCC(=O)c1ccccc1
inactive: dose: 25.0 mg/kg/injection, schedule: Q01DX009 (ip), vehicle: saline with Tween-80 96 % of control | dose: 50.0 mg/kg/injection, schedule: Q01DX009 (ip), vehicle: saline with Tween-80 102 % of control | dose: 100.0 mg/kg/injection, schedule: Q01DX009 (ip), vehicle: saline with Tween-80 92 % of control

NC(=O)NC1C(c2ccccc2)C1c1ccccc1 (stereo not drawn)
inactive: dose: 100.0 mg/kg/injection, schedule: Q01DX001 (ip), vehicle: saline 121 % of control | dose: 200.0 mg/kg/injection, schedule: Q01DX001 (ip), vehicle: saline 110 % of control | dose: 400.0 mg/kg/injection, schedule: Q01DX001 (ip), vehicle: saline 93 % of control

O=[N+]([O-])c1cccc(OCCCOc2ccccc2)c1
inactive: dose: 100.0 mg/kg/injection, schedule: Q01DX009 (ip), vehicle: other 100 % of control | dose: 200.0 mg/kg/injection, schedule: Q01DX009 (ip), vehicle: other 92 % of control | dose: 400.0 mg/kg/injection, schedule: Q01DX009 (ip), vehicle: other 103 % of control

C(C[P+](c1ccccc1)(c1ccccc1)c1ccccc1)=C(c1ccccc1)c1ccccc1
inactive: dose: 10.0 mg/kg/injection, schedule: Q01DX001 (ip), vehicle: saline 103 % of control | dose: 40.0 mg/kg/injection, schedule: Q01DX001 (ip), vehicle: saline 95 % of control

CCCCCCCC/C=C\CCCCCCCC(=O)OCCCCCCCCCCCCCC
inactive: dose: 100.0 mg/kg/injection, schedule: Q01DX009 (ip), vehicle: Klucel (hydroxypropylcellulose) (HPC) 104 % of control | dose: 200.0 mg/kg/injection, schedule: Q01DX009 (ip), vehicle: Klucel (hydroxypropylcellulose) (HPC) 98 % of control | dose: 400.0 mg/kg/injection, schedule: Q01DX009 (ip), vehicle: Klucel (hydroxypropylcellulose) (HPC) 94 % of control

CCOC(=O)c1nnc(SC)nc1SC
inactive: dose: 75.0 mg/kg/injection, schedule: Q01DX001 (ip), vehicle: alcohol 100 % of control | dose: 150.0 mg/kg/injection, schedule: Q01DX001 (ip), vehicle: alcohol 108 % of control

CC(=O)OC1CCC2(C)C(C)CC3C(=O)OC32C1 (stereo not drawn)
inactive: dose: 100.0 mg/kg/injection, schedule: Q04DX003 (ip), vehicle: acetone 87 % of control | dose: 200.0 mg/kg/injection, schedule: Q04DX003 (ip), vehicle: acetone 90 % of control
